Data on three compounds can be found in patent US20050222134A1, “Crystalline forms of 5, 11-dihydro-11-ethyl-5-methyl-8-{2-{(1-oxido-4-quinolinyl)oxy}ethyl}-6H-dipyrido[3,2-b:2',3'-e] [1,4]diazepin-6-one” (Boehringer Ingelheim International GmbH, priority 2004, published 2005).

The nature of data set [1]: Solubility experiments used to determine the phase diagram of the crystalline forms. The format is physicochemical. To be noted: 25° C.; for water content of ethanol solution in contact with which the form is thermodynamically favored over the other forms: ethanol solutions saturated with the compound, compared with the dihydrate, anhydrous Form I and Form III. How it is done: Solubility experiments were used to determine the unique phase diagram shown in FIG. 5 for the various forms of 5,11-dihydro-11-ethyl-5-methyl-8-{2-{(1-oxido-4-quinolinyl)oxy}ethyl}-6H-dipyrido[3,2-b:2′,3′-e][1,4]diazepin-6-one. […] Additionally, anhydrous Form III is thermodynamically favored over the dihydrate and anhydrous Form I at 25° C. when in contact with ethanol solutions containing<˜2.7±0.5 wt % water.

Data set [2] can be described thus: Biological testing of plasma levels of crystalline forms. The format is in vivo. To be noted: compared with other crystalline forms of the drug. The text has this:
(§1) We have further discovered that under proper conditions several anhydrous polymorphs of 5,11-dihydro-11-ethyl-5-methyl-8-{2-{(1-oxido-4-quinolinyl)oxy} ethyl}-6H-dipyrido[3,2-b:2′,3′-e][1,4]diazepin-6-one may be formed. […] Thus, the invention further includes anhydrous Form III of 5,11-dihydro-11-ethyl-5-methyl-8-{2-{(1-oxido-4-quinolinyl)oxy}ethyl}-6H-dipyrido[3,2-b:2′,3′-e][1,4]diazepin-6-one and methods for its manufacture.

A short description of data set [3]: Phase stability of crystalline forms at ambient / storage conditions. The format is physicochemical.
From the text: A first aspect of the present invention comprises the discovery of a dihydrate crystalline form of 5,11-dihydro-11-ethyl-5-methyl-8-{2-{(1-oxido-4-quinolinyl)oxy}ethyl}-6H-dipyrido[3,2-b:2′,3′-e][1,4]diazepin-6-one. […] The invention also comprises methods for making this dihydrate crystalline form.
as §1

On to `CCN1c2ncc(CCOc3cc[n+]([O-])c4ccccc34)cc2C(=O)N(C)c2cccnc21` (hydrate or solvate) [dihydrate, 5,11-dihydro-11-ethyl-5-methyl-8-{2-{(1-oxido-4-quinolinyl)oxy}ethyl}-6H-dipyrido[3,2-b:2′,3′-e][1,4]diazepin-6-one dihydrate], for which the melting point came out at 199 °C.

In turn, `CCN1c2ncc(CCOc3cc[n+]([O-])c4ccccc34)cc2C(=O)N(C)c2cccnc21` [anhydrous Form III, 5,11-dihydro-11-ethyl-5-methyl-8-{2-{(1-oxido-4-quinolinyl)oxy}ethyl}-6H-dipyrido[3,2-b:2′,3′-e][1,4]diazepin-6-one Anhydrous Form III] returned a melting point of 198.2 °C. Also, in data set [1], the “thermodynamic preference between crystalline forms (phase diagram)” value is reported as “thermodynamically preferred over anhydrous Form I” and the “water content of ethanol solution in contact with which the form is thermodynamically favored over the other forms” value was below 2.7±0.5 wt % water. Besides, the plasma levels entry in data set [2] is “higher plasma levels than are attainable using other crystalline forms”. For the same compound, in data set [3] (some tested ambient conditions), the phase stability result is “demonstrated phase stability”.

In the case of `CCN1c2ncc(CCOc3cc[n+]([O-])c4ccccc34)cc2C(=O)N(C)c2cccnc21` [dihydrate, 5,11-dihydro-11-ethyl-5-methyl-8-{2-{(1-oxido-4-quinolinyl)oxy}ethyl}-6H-dipyrido[3,2-b:2′,3′-e][1,4]diazepin-6-one dihydrate], the “water content of ethanol solution in contact with which the form is thermodynamically favored over the other forms” value in data set [1] (dihydrate) is above 2.7 wt % water. The “thermodynamic or kinetic preference on storage” value in data set [3] (temperatures and humidities most likely encountered on storage of drug substance or drug product, compared with the trihydrate) is “thermodynamically or kinetically favored”.
